Data reported in patent publication US20220056019A1, “FARNESOID X RECEPTOR AGONISTS AND USES THEREOF” (Metacrine, Inc., priority 2018, published 2022).

These molecules were tested against T1, hFXR (Homo sapiens, UniProt Q96RI1) (assay: In Vitro FXR Assay (TK): TK-ECRE-luc reporter in transfected CV-1 cells). Details: 18 hrs incubation, luminescence.
T1 construct: expressed in transfected cells; host or cells: CV-1 cells
T1 sequence (Q96RI1 1-486): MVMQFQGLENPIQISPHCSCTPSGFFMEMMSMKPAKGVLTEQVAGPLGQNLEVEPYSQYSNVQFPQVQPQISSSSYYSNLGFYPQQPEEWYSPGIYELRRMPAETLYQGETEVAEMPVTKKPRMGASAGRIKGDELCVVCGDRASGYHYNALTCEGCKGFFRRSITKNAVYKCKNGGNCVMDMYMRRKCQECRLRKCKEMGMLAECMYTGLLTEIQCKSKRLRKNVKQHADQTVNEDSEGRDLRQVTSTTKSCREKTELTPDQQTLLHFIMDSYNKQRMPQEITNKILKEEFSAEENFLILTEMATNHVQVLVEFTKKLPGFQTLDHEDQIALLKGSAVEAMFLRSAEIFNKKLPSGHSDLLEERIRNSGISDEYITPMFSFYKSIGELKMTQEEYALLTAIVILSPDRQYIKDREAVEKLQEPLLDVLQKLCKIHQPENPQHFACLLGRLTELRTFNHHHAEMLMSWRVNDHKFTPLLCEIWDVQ
T1 sequence (P19793 1-462 partner): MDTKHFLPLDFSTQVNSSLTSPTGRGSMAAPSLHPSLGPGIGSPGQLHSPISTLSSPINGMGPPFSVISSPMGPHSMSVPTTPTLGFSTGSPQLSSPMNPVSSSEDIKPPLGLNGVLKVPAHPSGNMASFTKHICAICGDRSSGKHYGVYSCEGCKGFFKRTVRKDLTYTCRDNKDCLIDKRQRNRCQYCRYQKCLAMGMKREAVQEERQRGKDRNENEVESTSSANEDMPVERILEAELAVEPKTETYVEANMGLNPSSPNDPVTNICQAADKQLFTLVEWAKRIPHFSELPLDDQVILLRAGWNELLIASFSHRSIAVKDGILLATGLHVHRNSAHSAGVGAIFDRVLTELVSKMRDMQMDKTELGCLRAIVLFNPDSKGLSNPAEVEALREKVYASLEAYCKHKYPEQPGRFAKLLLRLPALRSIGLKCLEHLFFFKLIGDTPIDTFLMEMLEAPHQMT
Type: cell-based
In short: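 Reporter gene assay: CV-1 cells co-expressing hFXR, hRXR, TK-ECRE-luc and pCMX-YFP after overnight transfection in charcoal-stripped serum. Treatment with serially diluted compounds lasted 18 hrs at 37 °C, followed by cell lysis and a luminescence measurement.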

| EC50 [nM] | Structure (SMILES) |
| --- | --- |
| ≤ 50 | COc1ccc(C23CCC(CN(c4cc(-c5cnn(C(C)C)c5)ccn4)C(=O)[C@H]4CC[C@H](OC(=O)N5CC(OC(C)C)C5)CC4)(CC2)CC3)cc1C [Compound 23.11, 4-((4-(1-Isopropyl-1H-pyrazol-4-yl)pyridin-2-yl)((4-(4-methoxy-3-methylphenyl)bicyclo[2.2.2]octan-1-yl)methyl)carbamoyl)(trans-cyclohexyl) 3-isopropoxy-azetidine-1-carboxylate] |
| ≤ 50 | CCc1nc(-c2ccnc(N(C[C@H]3CC[C@H](c4ccc(OC)c(C)c4)CC3)C(=O)[C@H]3CC[C@H](OC(=O)N4CC(O)C4)CC3)c2)co1 [Compound 2.36, trans-4-((4-(2-Ethyloxazol-4-yl)pyridin-2-yl)((trans-4-(4-methoxy-3-methylphenyl)cyclohexyl)methyl)carbamoyl)cyclohexyl 3-hydroxyazetidine-1-carboxylate] |
| ≤ 50 | COc1ccc(C23CCC(CN(c4cc(-c5cnn(C(C)C)c5)c(F)cn4)C(=O)[C@H]4CC[C@H](OC(=O)N5CC(CO)C5)CC4)(CC2)CC3)cc1C [Compound 25.06, 4-((5-Fluoro-4-(1-isopropyl-1H-pyrazol-4-yl)pyridin-2-yl)((4-(4-methoxy-3-methylphenyl)bicyclo[2.2.2]octan-1-yl)methyl)carbamoyl)cyclohexyl trans-3-(hydroxymethyl)azetidine-1-carboxylate] |
| ≤ 50 | COc1c(C)cc(C23CCC(CN(c4cc(-c5cnn(C(C)C)c5)ccn4)C(=O)[C@H]4CC[C@H](OC(=O)N5CC(O)C5)CC4)(CC2)CC3)cc1C [Compound 26.07, 4-((4-(1-Isopropyl-1H-pyrazol-4-yl)pyridin-2-yl)((4-(4-methoxy-3,5-dimethylphenyl)bicyclo[2.2.2]octan-1-yl)methyl)carbamoyl)cyclohexyl trans-3-hydroxyazetidine-1-carboxylate] |
| ≤ 50 | COc1ccc(C23CCC(CN(c4cc(-c5cnn(C6CCSCC6)c5)ccn4)C(=O)[C@H]4CC[C@H](OC(=O)N5CC(O)C5)CC4)(CC2)CC3)cc1C [Compound 26.21, 4-(((4-(4-Methoxy-3-methylphenyl)bicyclo[2.2.2]octan-1-yl)methyl)(4-(1-(tetrahydro-2H-thiopyran-4-yl)-1H-pyrazol-4-yl)pyridin-2-yl)carbamoyl)cyclohexyl trans-3-hydroxyazetidine-1-carboxylate] |
| ≤ 50 | COc1ccc(C23CCC(CN(c4cc(-c5cnn(C(C)C)c5)ccn4)C(=O)[C@H]4CC[C@H](OC(=O)N5CC(OC)C5)CC4)(CC2)CC3)cc1C [Compound 4.47, 4-((4-(1-Isopropyl-1H-pyrazol-4-yl)pyridin-2-yl) ((4-(4-methoxy-3-methylphenyl)bicyclo [2.2.2]octan-1-yl)methyl)carbamoyl)(trans-cyclohexyl) 3-methoxyazetidine-1-carboxylate] |
| ≤ 50 | COc1ccc([C@H]2CC[C@H](CN(c3cccc(-c4cnn(C(C)C)c4)c3)C(=O)[C@H]3CC[C@H](NC(=O)C4CC(=O)C4)CC3)CC2)cc1C [Compound 14.01, trans-N-(3-(1-Isopropyl-1H-pyrazol-4-yl)phenyl)-N-((trans-4-(4-methoxy-3-methylphenyl)cyclohexyl)methyl)-4-(3-oxocyclobutanecarboxamido)cyclo-hexanecarboxamide] |
| ≤ 50 | COc1ccc(C23CCC(CN(c4cc(-c5cnn(C(C)C)c5)ncn4)C(=O)[C@H]4CC[C@H](OC(=O)NCCCO)CC4)(CC2)CC3)cc1C [Compound 23.19, 4-((6-(1-Isopropyl-1H-pyrazol-4-yl)pyrimidin-4-yl)((4-(4-methoxy-3-methylphenyl)bi-cyclo[2.2.2]octan-1-yl)methyl)carbamoyl)(trans-cyclohexyl) (3-hydroxypropyl)carbamate] |
| ≤ 50 | CCOc1ncc(-c2ccnc(N(C[C@H]3CC[C@H](c4ccc(OC)c(C)c4)CC3)C(=O)[C@H]3CC[C@H](OC(=O)N4CC(O)C4)CC3)c2)s1 [Compound 2.43, trans-4-((4-(2-Ethoxythiazol-5-yl)pyridin-2-yl)((trans-4-(4-methoxy-3-methylphenyl)cyclohexyl)methyl)carbamoyl)cyclohexyl 3-hydroxyazetidine-1-carboxylate] |
| ≤ 50 | COc1ccc(C23CCC(CN(c4cc(-c5cnn(C(C)C)c5)ccn4)C(=O)[C@H]4CC[C@H](OC(=O)NCCCO)CC4)(CC2)CC3)cc1C [Compound 4.07, 4-((4-(1-Isopropyl-1H-pyrazol-4-yl)pyridin-2-yl)((4-(4-methoxy-3-methylphenyl)bicyclo [2.2.2]octan-1-yl)methyl)carbamoyl)cyclohexyl (3-hydroxypropyl)trans-carbamate] |
| ≤ 50 | COc1ccc([C@H]2CC[C@H](CN(c3cccc(-c4cnn(C(C)C)c4)c3)C(=O)[C@H]3CC[C@H](CCO)CC3)CC2)cc1C [Compound 15, trans-4-(2-Hydroxyethyl)-N-(3-(1-isopropyl-1H-pyrazol-4-yl)phenyl)-N-((trans-4-(4-methoxy-3-methylphenyl)cyclohexyl)methyl)cy-clohexanecarboxamide] |
| ≤ 50 | COc1ccc(C23CCC(CN(c4cc(-c5cnc(C(C)C)s5)ccn4)C(=O)[C@H]4CC[C@H](OC(=O)NCCO)CC4)(CC2)CC3)cc1C [Compound 4.36, 4-((4-(2-Isopropylthiazol-5-yl)pyridin-2-yl)((4-(4-methoxy-3-methylphenyl)bicyclo[2.2.2]octan-1-yl)methyl)carbamoyl) cyclohexyl(2-hydroxyethyl)trans-carbamate] |
| ≤ 50 | COc1ccc([C@H]2CC[C@H](CN(c3cc(-c4coc(C(C)C)n4)ccn3)C(=O)[C@H]3CC[C@H](OC(=O)NC4COC4)CC3)CC2)cc1C [Compound 2.52, trans-4-((4-(2-Isopropyloxazol-4-yl)pyridin-2-yl)(((trans)-4-(4-methoxy-3-methylphenyl)cyclohexyl)methyl)carbamoyl)cyclohexyl oxetan-3-ylcarbamate] |
| ≤ 50 | COc1ccc(C23CCC(CN(c4cc(-c5cnc(C(C)C)s5)ccn4)C(=O)[C@H]4CC[C@H](OC(=O)N5CC(O)C5)CC4)(CC2)CC3)cc1C [Compound 4.21, 4-((4-(2-Isopropylthiazol-5-yl)pyridin-2-yl)((4-(4-methoxy-3-methylphenyl)bicyclo[2.2.2]octan-1-yl)methyl)carbamoyl) cyclohexyl 3-hydroxyazetidine-trans-1-carboxylate] |
| ≤ 50 | O=C(O[C@H]1CC[C@H](C(=O)N(C[C@H]2CC[C@H](c3cc4ccccn4c3)CC2)c2cccc(-c3cnc(C4CC4)s3)c2)CC1)N1CC(O)C1 [Compound 5.14, trans-4-((3-(2-Cyclopropylthiazol-5-yl)phenyl)((trans-4-(indolizin-2-yl)cyclohexyl)methyl)carbamoyl) cyclohexyl 3-hydroxyazetidine-1-carboxylate] |
| ≤ 50 | COc1ccc([C@H]2CC[C@H](CN(c3cc(-c4cnn(C(C)C)c4)ccn3)C(=O)[C@H]3CC[C@H](OC(=O)NC[C@H](F)CO)CC3)CC2)cc1C [Compound 2.30, trans-4-((4-(1-Isopropyl-1H-pyrazol-4-yl)pyridin-2-yl)(((trans)-4-(4-methoxy-3-methylphenyl)cyclohexyl)methyl)carbamoyl) cyclohexyl((S)-2-fluoro-3-hydroxypropyl)carbamate] |
| ≤ 50 | COc1ccc(C23CCC(CN(c4cc(-c5cnn(C(C)C)c5)ccn4)C(=O)[C@H]4CC[C@H](OC(=O)NCCC(C)(C)O)CC4)(CC2)CC3)cc1C [Compound 4.08, 4-((4-(1-Isopropyl-1H-pyrazol-4-yl)pyridin-2-yl)((4-(4-methoxy-3-methylphenyl)bicyclo [2.2.2]octan-1-yl)methyl)carbamoyl)cyclohexyl (3-hydroxy-3-methylbutyl)trans-carbamate] |
| ≤ 50 | CNC(=O)O[C@H]1CC[C@H](C(=O)N(CC23CCC(c4ccc(OC)c(C)c4)(CC2)CC3)c2cc(-c3cnn(C(C)C)c3)ccn2)CC1 [Compound 4.03, 4-((4-(1-Isopropyl-1H-pyrazol-4-yl)pyridin-2-yl)((4-(4-methoxy-3-methylphenyl)bicyclo [2.2.2]octan-1-yl)methyl)carbamoyl)cyclohexyl trans-methylcarbamate] |
| ≤ 50 | COc1ccc(C23CCC(CN(c4cc(-c5cnn(C(C)C)c5)ccn4)C(=O)[C@H]4CC[C@H](OC(=O)N5CC(C#N)C5)CC4)(CC2)CC3)cc1C [Compound 4.45, 4-((4-(1-Isopropyl-1H-pyrazol-4-yl)pyridin-2-yl) ((4-(4-methoxy-3-methylphenyl)bicyclo [2.2.2]octan-1-yl)methyl)carbamoyl)cyclohexyl trans-3-cyanoazetidine-1-carboxylate] |
